{"source": "patent US20060252766A1", "about": "“Methods using a combination of 3-heteroaryl-2-indolinone and a cyclooxygenase-2 inhibitor for the treatment of neoplasia” (PFIZER INC, priority 2002, published 2006)", "test_system": "1483 human head and neck squamous cell carcinoma (HNSCC) xenograft", "assay": "HN1483 tumor model: paw tumor volume of treated mice", "format": "in vivo, nude mice", "details": "for Paw volume, paw / Tumor vol.: individual mice; for Tumor vol.: paw minus BKG. 0.10", "key": {"[1]": {"details": "Celecoxib/40 ppm, Day 17 Mar. 16, 2001"}, "[2]": {"details": "Celecoxib/40 ppm, Day 21 Mar. 20, 2001"}, "[3]": {"details": "Celecoxib/40 ppm, Day 24 Mar. 23, 2001"}, "[4]": {"details": "Celecoxib/40 ppm, Day 31 Apr. 2, 2001"}, "[5]": {"details": "Celecoxib/40 ppm, Day 31 Mar. 30, 2001"}, "[6]": {"details": "Celecoxib/160 ppm, Day 17 Mar. 16, 2001"}, "[7]": {"details": "Celecoxib/160 ppm, Day 21 Mar. 20, 2001"}, "[8]": {"details": "Celecoxib/160 ppm, Day 24 Mar. 23, 2001"}, "[9]": {"details": "Celecoxib/160 ppm, Day 31 Apr. 2, 2001"}, "[10]": {"details": "Celecoxib/160 ppm, Day 31 Mar. 30, 2001"}}, "note": "“And” between values parts separate entries of the source, which are not always exact repeats. Equal values may be shown once."}
{"molecule": "Cc1ccc(-c2cc(C(F)(F)F)nn2-c2ccc(S(N)(=O)=O)cc2)cc1", "note": "[Celecoxib, celecoxib, reference compound]", "values": [{"measurement": "Paw volume, paw", "setting": "Celecoxib/40 ppm, Day 14 Mar. 13, 2001", "value": "0.28 (2×) and 0.25 (2×) and 0.24 (2×) and 0.29 and 0.27"}, {"measurement": "Tumor vol. Average", "setting": "Celecoxib/40 ppm, Day 17 Mar. 16, 2001, group average", "value": 0.17}, {"measurement": "Paw volume, paw", "setting": "[1]", "value": "0.3 and 0.29 (2×) and 0.22 and 0.32 and 0.27 and 0.25 (2×)"}, {"measurement": "Tumor vol.", "setting": "[1]", "value": "0.20 and 0.19 (2×) and 0.12 and 0.22 and 0.17 and 0.15 (2×)"}, {"measurement": "Tumor vol. Average", "setting": "Celecoxib/40 ppm, Day 21 Mar. 20, 2001, group average", "value": 0.22}, {"measurement": "Paw volume, paw", "setting": "[2]", "value": "0.38 (2×) and 0.23 and 0.36 and 0.28 (2×) and 0.39 and 0.31"}, {"measurement": "Tumor vol.", "setting": "[2]", "value": "0.28 (3×) and 0.13 and 0.18 (2×) and 0.29 and 0.21"}, {"measurement": "Tumor vol. Average", "setting": "Celecoxib/40 ppm, Day 24 Mar. 23, 2001, group average", "value": 0.23}, {"measurement": "Paw volume, paw", "setting": "[3]", "value": "0.37 and 0.32 and 0.23 and 0.44 and 0.28 and 0.29 and 0.47 and 0.27"}, {"measurement": "Tumor vol.", "setting": "[3]", "value": "0.27 and 0.22 and 0.13 and 0.34 and 0.18 and 0.19 and 0.37 and 0.17"}, {"measurement": "Tumor vol. Average", "setting": "Celecoxib/40 ppm, Day 31 Apr. 2, 2001, group average", "value": 0.48}, {"measurement": "Paw volume, paw", "setting": "[4]", "value": "0.7 and 0.48 (2×) and 0.25 and 0.75 and 0.44 and 0.38 and 0.89"}, {"measurement": "Tumor vol.", "setting": "[4]", "value": "0.60 and 0.38 (2×) and 0.18 and 0.55 and 0.34 and 0.28 and 0.79"}, {"measurement": "Tumor vol. Average", "setting": "Celecoxib/40 ppm, Day 31 Mar. 30, 2001, group average", "value": 0.40}, {"measurement": "Paw volume, paw", "setting": "[5]", "value": "0.63 and 0.51 and 0.27 and 0.72 and 0.30 and 0.39 and 0.71 and 0.41"}, {"measurement": "Tumor vol.", "setting": "[5]", "value": "0.53 and 0.41 and 0.17 and 0.82 and 0.29 and 0.20 and 0.61 and 0.31"}, {"measurement": "Paw volume, paw", "setting": "Celecoxib/160 ppm, Day 14 Mar. 13, 2001", "value": "0.19 and 0.26 and 0.22 and 0.3 and 0.23 (3×) and 0.28"}, {"measurement": "Tumor vol. Average", "setting": "Celecoxib/160 ppm, Day 17 Mar. 16, 2001, group average (row not labelled)", "value": 0.18}, {"measurement": "Paw volume, paw", "setting": "[6]", "value": "0.24 and 0.25 (2×) and 0.21 and 0.31 and 0.23 and 0.29 and 0.27"}, {"measurement": "Tumor vol.", "setting": "[6]", "value": "0.14 and 0.15 (2×) and 0.11 and 0.21 and 0.13 and 0.19 and 0.17"}, {"measurement": "Tumor vol. Average", "setting": "Celecoxib/160 ppm, Day 21 Mar. 20, 2001, group average (row not labelled)", "value": 0.15}, {"measurement": "Paw volume, paw", "setting": "[7]", "value": "0.22 and 0.28 (2×) and 0.24 and 0.32 and 0.3 (2×) and 0.25"}, {"measurement": "Tumor vol.", "setting": "[7]", "value": "0.12 and 0.16 (3×) and 0.14 and 0.22 and 0.20 (2×)"}, {"measurement": "Tumor vol. Average", "setting": "Celecoxib/160 ppm, Day 24 Mar. 23, 2001, group average (row not labelled)", "value": 0.19}, {"measurement": "Paw volume, paw", "setting": "[8]", "value": "0.22 and 0.28 and 0.24 (2×) and 0.38 and 0.27 and 0.35 and 0.31"}, {"measurement": "Tumor vol.", "setting": "[8]", "value": "0.12 and 0.16 and 0.14 (2×) and 0.28 and 0.17 and 0.26 and 0.21"}, {"measurement": "Tumor vol. Average", "setting": "Celecoxib/160 ppm, Day 31 Apr. 2, 2001, group average (row not labelled)", "value": 0.29}, {"measurement": "Paw volume, paw", "setting": "[9]", "value": "0.33 (3×) and 0.57 and 0.29 and 0.59 and 0.4 and 0.28"}, {"measurement": "Tumor vol.", "setting": "[9]", "value": "0.23 (2×) and 0.22 and 0.47 and 0.19 and 0.49 and 0.30 and 0.10"}, {"measurement": "Tumor vol. Average", "setting": "Celecoxib/160 ppm, Day 31 Mar. 30, 2001, group average (row not labelled)", "value": 0.29}, {"measurement": "Paw volume, paw", "setting": "[10]", "value": "0.38 and 0.32 and 0.3 and 0.49 and 0.33 and 0.57 and 0.4 and 0.5"}, {"measurement": "Tumor vol.", "setting": "[10]", "value": "0.28 and 0.22 and 0.20 (2×) and 0.39 and 0.23 and 0.47 and 0.30"}]}
